In patent publication US20240174629A1 (OTCPHARM JSC, priority 2021, published 2024):
In brackets after ≈: the same amount, converted by molar mass. Structures can show the parent of a compound that is named as a salt. Where two headings read alike, the source gives them in different places.

What was measured:
[1] = Cytotoxicity, microtetrazolium test (MTT); details: dog, MDCK cells, CC50 (MDCK), mean ±SD
SARS-CoV-2 coronavirus = assay: Activity against SARS-CoV-2 coronavirus on U2-OS ACE2 cells (S-Fuse, GFP signal); format: cell-based; details: Severe acute respiratory syndrome coronavirus 2, U2OS; SARS-CoV-2, U2-OS ACE2 cells, MOI 0.1, 20 hours
U2-OS ACE2 cells = assay: Cytotoxicity on U2-OS ACE2 cells (Hoechst signal); details: 20 hours
[2] = Acute oral toxicity, fixed dose method (OECD 420); details: for GHS hazard class: acute oral toxicity in mice, UN GHS classification; for Died / Survived: female BALB/c mice, intragastric
MDCK cells [3] = assay: Cytotoxicity, microtetrazolium test (MTT); details: 48 h, mean ±SD
MDCK cells [4] = test system: MDCK cells

## COC(=O)c1c(N(Cc2ccc(F)cc2)C(C)=O)sc2c(CN(C)C)c(O)ccc12 [Example 62, Methyl 2-[acetyl(4-fluorobenzyl)amino-7-[(dimethylamino)methyl]-6-hydroxy-1-benzothiophene-3-carboxylate hydrochloride]
[1]
  CC50 at 48 h: 92 ± 7 µg/mL
SARS-CoV-2 coronavirus
  IC50: 11.3 µM
U2-OS ACE2 cells
  Cytotoxicity: Non-toxic up to 2500 μM

## CNC(=O)c1c(N(Cc2ccccc2)C(C)=O)sc2cc(O)ccc12 [Example 73, 2-[acetyl(benzyl)amino]-6-hydroxy-N-methyl-1-benzothiophene-3-carboxamide]
[1]
  CC50 at 48 h: > 300 µg/mL
SARS-CoV-2 coronavirus
  IC50: 23 µM
U2-OS ACE2 cells
  Cytotoxicity: Non-toxic up to 2500 μM
[2]
  GHS hazard class: 5
[2]; 2000 mg/kg
  Died: 0
  Survived: 4

## COC(=O)c1c(N(Cc2ccccc2)C(C)=O)sc2cc(O)ccc12 [Example 4, Methyl 2-[acetyl(benzyl)amino]-6-hydroxy-1-benzothiophene-3-carboxylate]
[1]
  CC50 at 48 h: 200 µg/mL (≈ 563 µM)
SARS-CoV-2 coronavirus
  IC50: 10.6 µM
U2-OS ACE2 cells
  Cytotoxicity: Non-toxic up to 2500 μM
other
  melting point: 165 to 167 °C

## COC(=O)c1c(N(Cc2ccccc2F)C(C)=O)sc2c(Cl)c(O)ccc12 [Example 23, Methyl 2-[acetyl(2-fluorobenzyl)amino]-7-chloro-6-hydroxy-1-benzothiophene-3-carboxylate]
[1]
  CC50 at 48 h: > 300 µg/mL
[2]
  GHS hazard class: 5
[2]; 2000 mg/kg
  Died: 0
  Survived: 4

## COC(=O)c1c(N(Cc2ccccc2)C(C)=O)sc2c(CN(C)C)c(O)ccc12 [Example 61, Methyl 2-[acetyl(benzyl)amino-7-[(dimethylamino)methyl]-6-hydroxy-1-benzothiophene-3-carboxylate hydrochloride]
MDCK cells [3]; hydrochloride
  CC50 (MDCK): >300 µg/mL
[2]
  GHS hazard class: 4
[2]; 300 mg/kg
  Died: 0
  Survived: 4
[2]; 2000 mg/kg
  Died: 1
  Survived: 1

## COC(=O)c1c(N(Cc2ccccc2F)C(C)=O)sc2cc(O)ccc12 [Example 24, Methyl 2-[acetyl(2-fluorobenzyl)amino]-6-hydroxy-1-benzothiophene-3-carboxylate]
[1]
  CC50 at 48 h: > 300 µg/mL
other
  melting point: 165 to 167 °C

## COC(=O)c1c(N(CCc2ccccc2F)C(C)=O)sc2c(CN(C)C)c(O)ccc12 [Example 56, Methyl 2-{acetyl[2-(2-fluorophenyl)ethyl]amino}-7-[(dimethylamino)methyl]-6-hydroxy-1-benzothiophene-3-carboxylate]
[1]
  CC50 at 48 h: > 300 µg/mL
other
  melting point: 114 to 120 °C

## COC(=O)c1c(N(C(C)=O)C(C)c2ccccc2)sc2c(Cl)c(O)ccc12 (centres unmarked) [Example 37, Methyl 2-[acetyl(1-phenylethyl)amino]-7-chloro-6-hydroxy-1-benzothiophene-3-carboxylate]
[1]
  CC50 at 48 h: 24.5 ± 2.2 µg/mL (≈ 60.7 µM)
other
  melting point: 195 to 200 °C

## CC(=O)N(Cc1ccccc1)c1sc2c(Cl)c(O)ccc2c1C(=O)O [Example 66, 2-[acetyl(benzyl)amino]-7-chloro-6-hydroxy-1-benzothiophene-3-carboxylic acid]
[1]
  CC50 at 48 h: > 300 µg/mL
other
  melting point: 240 to 245 °C

## COC(=O)c1c(N(Cc2ccccc2)C(C)=O)sc2c(CN(C)C)c(O)ccc12 [Example 50, Methyl 2-[acelyl (benzyl)amino-7-[(dimethylamino)methyl]-6-hydroxy-1-benzothiophene-3-carboxylate]
[1]
  CC50 at 48 h: 182 µg/mL (≈ 441 µM)
SARS-CoV-2 coronavirus
  IC50: 9.08 µM
U2-OS ACE2 cells
  Cytotoxicity: Non-toxic up to 2500 μM

## COC(=O)c1c(N(Cc2ccc(F)cc2F)C(C)=O)sc2c(CN(C)C)c(O)ccc12 [Example 55]
[1]
  CC50 at 48 h: > 300 µg/mL
SARS-CoV-2 coronavirus
  IC50: 15.6 µM
U2-OS ACE2 cells
  Cytotoxicity: Non-toxic up to 2500 μM
other
  melting point: 118 to 122 °C

## CC(=O)N(Cc1ccccc1)c1sc2cc(O)ccc2c1C(=O)OC(C)C [Example 8, Isopropyl 2-[acetyl(benzyl)amino]-6-hydroxy-1-benzothiophene-3-carboxylate]
[1]
  CC50 at 48 h: 13.9 ± 1.1 µg/mL (≈ 36.2 µM)
other
  melting point: 126 to 130 °C

## CC(=O)N(Cc1ccccc1Cl)c1sc2c(Cl)c(O)ccc2c1C(=O)O [Example 68, 2-[acetyl(2-chlorobenzyl)amino]-7-chloro-6-hydroxy-1-benzothiophene-3-carboxylic acid]
[1]
  CC50 at 48 h: 65 ± 4 µg/mL (≈ 158 µM)
other
  melting point: 265 to 270 °C

## CC(=O)N(Cc1ccc(F)cc1F)c1sc2c(Cl)c(O)ccc2c1C(=O)O [Example 71, 2-[acetyl(2,4-difluorobenzyl)amino]-7-chloro-6-hydroxy-1-benzothiophene-3-carboxylic acid]
[1]
  CC50 at 48 h: 210 ± 16 µg/mL (≈ 510 µM)
other
  melting point: 238 to 242 °C

## COC(=O)c1c(N(C(C)=O)C(C)c2ccccc2)sc2cc(O)ccc12 (centres unmarked) [Example 38, Methyl 2-[acetyl(1-phenylethyl)amino]-6-hydroxy-1-benzothiophene-3-carboxylate]
[1]
  CC50 at 48 h: 30 µg/mL (≈ 81.2 µM)
other
  melting point: 152 to 157 °C

## Pentandioic acid imidazolylethanamide [Ingavirin, reference compound]
MDCK cells [3]
  CC50 (MDCK): 300 ± 12 µg/mL

## CCCNC(=O)c1c(N(Cc2ccccc2)C(C)=O)sc2cc(O)ccc12 [Example 80, 2-[acetyl(benzyl)amino]-6-hydroxy-N-propyl-1-benzothiophene-3-carboxamide]
[1]
  CC50 at 48 h: 240 ± 16 µg/mL (≈ 627 µM)
other
  melting point: 85 to 90 °C

## COC(=O)c1c(N(Cc2ccc(F)cc2F)C(C)=O)sc2cc(O)ccc12 [Example 30, Methyl 2-[acetyl(2,4-difluorobenzyl)amino]-6-hydroxy-1-benzothiophene-3-carboxylate]
[1]
  CC50 at 48 h: > 300 µg/mL
other
  melting point: 178 to 180 °C

## CCOC(=O)c1c(N(Cc2ccccc2)C(C)=O)sc2c(Cl)c(O)ccc12 [Example 1, Ethyl 2-[acetyl(benzyl)amino]-7-chloro-6-hydroxy-1-benzothiophene-3-carboxylate]
[1]
  CC50 at 48 h: > 300 µg/mL
other
  melting point: 151 to 155 °C

## CC(=O)N(Cc1ccccc1)c1sc2cc(O)ccc2c1C(=O)O [Example 67, 2-[acetyl(benzyl)amino]-6-hydroxy-1-benzothiophene-3-carboxylic acid]
[1]
  CC50 at 48 h: > 300 µg/mL
other
  melting point: 130 to 135 °C

## CNC(=O)c1c(N(Cc2ccccc2Cl)C(C)=O)sc2c(Cl)c(O)ccc12 [Example 74, 2-[acetyl(2-chlorobenzyl)amino]-7-chloro-6-hydroxy-N-methyl-1-benzothiophene-3-carboxamide]
[1]
  CC50 at 48 h: 32 ± 4 µg/mL (≈ 75.6 µM)
other
  melting point: 200 to 202 °C

## COC(=O)c1c(N(Cc2ccccc2)C(C)=O)sc2c(CN3CCN(C)CC3)c(O)ccc12 [Example 65, Methyl 2-[acetyl(benzyl)amino-6-hydroxy-7-[(4-methylpiperazin-1-yl)methyl]-1-benzothiophene-3-carboxylate hydrochloride]
[1]
  CC50 at 48 h: 18.7 ± 1.6 µg/mL
SARS-CoV-2 coronavirus
  IC50: 9.8 µM
U2-OS ACE2 cells
  Cytotoxicity: Non-toxic up to 2500 μM

## COC(=O)c1c(N(Cc2ccccc2F)C(C)=O)sc2c(CN(C)C)c(O)ccc12 [Example 52]
[1]
  CC50 at 48 h: 180 ± 16 µg/mL (≈ 418 µM)
[2]
  GHS hazard class: 5
[2]; 2000 mg/kg
  Died: 0
  Survived: 4

## CCOC(=O)c1c(CSc2ccccc2)n(C)c2cc(Br)c(O)c(CN(C)C)c12 [Umifenovir, reference compound]
[1]
  CC50 at 48 h: 16 µg/mL (≈ 33.5 µM)
SARS-CoV-2 coronavirus
  IC50: 76 µM
U2-OS ACE2 cells
  Cytotoxicity: Non-toxic up to 2500 μM

## CNC(=O)c1c(N(Cc2ccccc2)C(C)=O)sc2c(Cl)c(O)ccc12 [Example 72, 2-[acetyl(benzyl)amino]-7-chloro-6-hydroxy-N-methyl-1-benzothiophene-3-carboxamide]
[1]
  CC50 at 48 h: 160 ± 11 µg/mL (≈ 411 µM)
[2]
  GHS hazard class: 5
[2]; 2000 mg/kg
  Died: 0
  Survived: 4

## CC(=O)N(Cc1ccccc1)c1sc2c(Cl)c(O)ccc2c1C(=O)N1CCCCC1 [Example 82, N-benzyl-N-[7-chloro-6-hydroxy-3-(piperidin-1-ylcarbonyl)-1-benzothien-2-yl]acetamide]
[1]
  CC50 at 48 h: 16.3 ± 0.8 µg/mL (≈ 36.8 µM)
other
  melting point: 95 to 100 °C

## CSc1nc2nnc([N+](=O)[O-])c(=O)n2[nH]1 [Triazavirin, Methylthionitrooxodihydro-triazolotriazinide sodium]
MDCK cells [4]
  CC50 (MDCK): 298 ± 22 µg/mL

## CCN(CC)Cc1c(O)ccc2c(C(=O)OC)c(N(Cc3ccccc3)C(C)=O)sc12 [Example 64, hydrochloride]
[1]
  CC50 at 48 h: 148 ± 11 µg/mL
SARS-CoV-2 coronavirus
  IC50: 9.12 µM
U2-OS ACE2 cells
  Cytotoxicity: Non-toxic up to 2500 μM

## CNC(=O)c1c(N(Cc2ccc(F)cc2F)C(C)=O)sc2c(Cl)c(O)ccc12 [Example 78, 2-[acetyl(2,4-difluorobenzyl)amino]-7-chloro-6-hydroxy-N-methyl-1-benzothiophene-3-carboxamide]
[1]
  CC50 at 48 h: 68 ± 5 µg/mL (≈ 160 µM)
other
  melting point: 125 to 130 °C

## COC(=O)c1c(N(Cc2ccccc2C#N)C(C)=O)sc2c(CN(C)C)c(O)ccc12 [Example 60]
[1]
  CC50 at 48 h: > 300 µg/mL
other
  melting point: 178 to 182 °C

## COC(=O)c1c(N(Cc2ccc(C(F)(F)F)cc2)C(C)=O)sc2cc(O)ccc12 [Example 22, Methyl 2-[acetyl(4-trifluoromethylbenzyl)amino]-6-hydroxy-1-benzothiophene-3-carboxylate]
[1]
  CC50 at 48 h: 3.2 ± 0.8 µg/mL (≈ 7.56 µM)
other
  melting point: 171 to 175 °C
